Activity calls are given as the source filed them.
Columns and labels:
Phosphomannomutase 2 = molecular target: T1, Phosphomannomutase 2 (Homo sapiens, UniProt O15305); assay: Counter screen SAR assay for PMM2 inhibitors via a fluorescence intensity assay. [Related pubchem assays (depositor defined):AID1545, AID1574]
T1 sequence (O15305 whole entry): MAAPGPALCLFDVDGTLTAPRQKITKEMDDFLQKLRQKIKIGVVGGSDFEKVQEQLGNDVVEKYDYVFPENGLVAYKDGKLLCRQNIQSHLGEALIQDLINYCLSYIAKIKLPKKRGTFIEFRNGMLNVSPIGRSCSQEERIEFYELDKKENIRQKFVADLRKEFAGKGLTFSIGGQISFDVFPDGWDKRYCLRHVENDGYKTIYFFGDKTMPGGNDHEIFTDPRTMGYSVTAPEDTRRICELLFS

[1] = molecular target: T2, Mannose-6-phosphate isomerase (Homo sapiens, UniProt P34949); assay: PMI enzyme inhibitors, confirmation, biochemical, fluorescence intensity (AID 1535)
T2 sequence (P34949 whole entry): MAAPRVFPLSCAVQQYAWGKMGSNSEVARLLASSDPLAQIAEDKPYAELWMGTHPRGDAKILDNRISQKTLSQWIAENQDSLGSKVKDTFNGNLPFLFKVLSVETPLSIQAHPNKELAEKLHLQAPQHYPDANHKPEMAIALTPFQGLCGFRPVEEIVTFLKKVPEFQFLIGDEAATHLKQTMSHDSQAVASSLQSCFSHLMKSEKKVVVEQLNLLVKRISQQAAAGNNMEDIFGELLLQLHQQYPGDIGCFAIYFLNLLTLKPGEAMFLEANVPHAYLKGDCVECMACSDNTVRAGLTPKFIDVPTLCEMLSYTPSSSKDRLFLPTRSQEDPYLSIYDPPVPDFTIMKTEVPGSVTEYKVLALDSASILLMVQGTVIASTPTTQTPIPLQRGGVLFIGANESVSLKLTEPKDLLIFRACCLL

[2] = molecular target: T3, Adenosylmethionine-8-amino-7-oxononanoate aminotransferase (Mycobacterium tuberculosis, UniProt P9WQ81); assay: Mycobacterium tuberculosis BioA enzyme inhibitor Measured in Biochemical System Using Plate Reader - 2163-02_Inhibitor_Dose_CherryPick_Activity.; format: functional, Mycobacterium tuberculosis UT205
T3 sequence (P9WQ81 whole entry): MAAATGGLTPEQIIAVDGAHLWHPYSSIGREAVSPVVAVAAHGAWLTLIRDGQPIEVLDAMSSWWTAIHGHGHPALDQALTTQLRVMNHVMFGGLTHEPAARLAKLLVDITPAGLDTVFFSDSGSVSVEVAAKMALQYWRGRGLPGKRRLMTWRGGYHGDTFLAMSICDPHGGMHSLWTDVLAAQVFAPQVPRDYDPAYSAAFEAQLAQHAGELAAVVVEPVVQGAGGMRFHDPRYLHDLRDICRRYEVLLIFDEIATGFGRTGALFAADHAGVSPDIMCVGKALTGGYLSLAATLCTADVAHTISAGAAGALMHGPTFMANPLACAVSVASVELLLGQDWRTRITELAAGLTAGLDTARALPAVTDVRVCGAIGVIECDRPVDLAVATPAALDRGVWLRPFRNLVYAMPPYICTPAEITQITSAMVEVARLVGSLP

[3] = molecular target: T4, Short transient receptor potential channel 4 (Mus musculus, UniProt Q9QUQ5); assay: mouse TRPC4 channel activators, dose response, cell-based, HEK293 TRPC4/mu-opioid, Fluo-4 calcium (AID 434937); format: functional
T4 sequence (Q9QUQ5 whole entry): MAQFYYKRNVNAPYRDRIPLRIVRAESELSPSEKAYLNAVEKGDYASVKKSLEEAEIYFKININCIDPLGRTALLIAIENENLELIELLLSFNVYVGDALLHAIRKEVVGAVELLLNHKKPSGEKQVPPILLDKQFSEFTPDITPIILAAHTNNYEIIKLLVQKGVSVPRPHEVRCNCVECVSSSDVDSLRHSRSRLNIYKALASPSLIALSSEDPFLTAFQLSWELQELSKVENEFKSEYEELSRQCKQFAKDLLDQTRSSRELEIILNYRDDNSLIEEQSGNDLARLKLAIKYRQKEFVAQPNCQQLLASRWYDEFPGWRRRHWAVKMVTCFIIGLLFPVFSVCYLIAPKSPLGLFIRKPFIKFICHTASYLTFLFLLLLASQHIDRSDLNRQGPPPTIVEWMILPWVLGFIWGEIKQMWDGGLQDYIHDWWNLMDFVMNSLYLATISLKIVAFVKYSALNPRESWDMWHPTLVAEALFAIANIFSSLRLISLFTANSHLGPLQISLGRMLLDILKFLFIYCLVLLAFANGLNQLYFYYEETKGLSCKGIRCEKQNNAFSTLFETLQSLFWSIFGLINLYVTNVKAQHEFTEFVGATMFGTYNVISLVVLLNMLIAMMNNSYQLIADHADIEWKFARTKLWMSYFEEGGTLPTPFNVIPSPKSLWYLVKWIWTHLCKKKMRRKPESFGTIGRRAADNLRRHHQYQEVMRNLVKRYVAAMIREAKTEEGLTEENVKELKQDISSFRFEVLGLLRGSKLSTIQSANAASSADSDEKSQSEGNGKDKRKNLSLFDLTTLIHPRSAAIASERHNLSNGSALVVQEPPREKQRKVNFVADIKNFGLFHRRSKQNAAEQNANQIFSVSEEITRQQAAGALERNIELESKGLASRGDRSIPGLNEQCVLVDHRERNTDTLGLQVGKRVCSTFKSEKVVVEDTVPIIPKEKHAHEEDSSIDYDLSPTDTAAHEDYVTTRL

Beta-galactosidase = Beta-galactosidase (Escherichia coli, UniProt Q8VNN2); assay: Dose response counterscreen for EBI2 assay utilizing the enzyme, b-galactosidase.; format: functional
Chain of Beta-galactosidase (Q8VNN2 whole entry): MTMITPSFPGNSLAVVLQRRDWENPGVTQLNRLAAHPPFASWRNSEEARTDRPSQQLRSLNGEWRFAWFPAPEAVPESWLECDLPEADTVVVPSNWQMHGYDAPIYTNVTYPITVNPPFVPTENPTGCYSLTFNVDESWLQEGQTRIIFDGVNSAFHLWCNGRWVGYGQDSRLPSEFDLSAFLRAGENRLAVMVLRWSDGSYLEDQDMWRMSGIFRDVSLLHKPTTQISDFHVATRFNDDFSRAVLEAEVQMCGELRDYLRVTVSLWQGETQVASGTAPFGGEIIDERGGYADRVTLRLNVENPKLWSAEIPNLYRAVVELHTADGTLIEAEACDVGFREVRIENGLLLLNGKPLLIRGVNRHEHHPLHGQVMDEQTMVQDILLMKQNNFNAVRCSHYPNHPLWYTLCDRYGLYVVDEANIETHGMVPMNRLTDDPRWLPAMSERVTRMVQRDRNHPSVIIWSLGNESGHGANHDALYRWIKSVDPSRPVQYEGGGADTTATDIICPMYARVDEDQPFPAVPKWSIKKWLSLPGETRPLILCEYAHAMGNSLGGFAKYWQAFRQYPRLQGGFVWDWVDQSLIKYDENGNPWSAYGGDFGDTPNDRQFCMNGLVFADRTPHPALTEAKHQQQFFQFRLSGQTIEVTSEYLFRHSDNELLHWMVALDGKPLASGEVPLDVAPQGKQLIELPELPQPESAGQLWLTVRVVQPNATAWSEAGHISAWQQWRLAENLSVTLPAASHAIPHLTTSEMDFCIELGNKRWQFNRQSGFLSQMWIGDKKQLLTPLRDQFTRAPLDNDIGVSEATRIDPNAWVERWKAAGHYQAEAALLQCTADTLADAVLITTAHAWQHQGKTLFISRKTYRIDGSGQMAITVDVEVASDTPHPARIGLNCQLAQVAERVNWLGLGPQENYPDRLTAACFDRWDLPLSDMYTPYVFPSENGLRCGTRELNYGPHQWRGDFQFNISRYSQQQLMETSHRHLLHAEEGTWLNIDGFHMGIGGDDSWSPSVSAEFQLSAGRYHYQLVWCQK

[4] = molecular target: Voltage-dependent T-type calcium channel subunit alpha-1H (Homo sapiens, UniProt O95180); format: functional;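 further: channel activity triggered by adding a high calcium stimulation buffer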
Chain of Voltage-dependent T-type calcium channel subunit alpha-1H (O95180 whole entry): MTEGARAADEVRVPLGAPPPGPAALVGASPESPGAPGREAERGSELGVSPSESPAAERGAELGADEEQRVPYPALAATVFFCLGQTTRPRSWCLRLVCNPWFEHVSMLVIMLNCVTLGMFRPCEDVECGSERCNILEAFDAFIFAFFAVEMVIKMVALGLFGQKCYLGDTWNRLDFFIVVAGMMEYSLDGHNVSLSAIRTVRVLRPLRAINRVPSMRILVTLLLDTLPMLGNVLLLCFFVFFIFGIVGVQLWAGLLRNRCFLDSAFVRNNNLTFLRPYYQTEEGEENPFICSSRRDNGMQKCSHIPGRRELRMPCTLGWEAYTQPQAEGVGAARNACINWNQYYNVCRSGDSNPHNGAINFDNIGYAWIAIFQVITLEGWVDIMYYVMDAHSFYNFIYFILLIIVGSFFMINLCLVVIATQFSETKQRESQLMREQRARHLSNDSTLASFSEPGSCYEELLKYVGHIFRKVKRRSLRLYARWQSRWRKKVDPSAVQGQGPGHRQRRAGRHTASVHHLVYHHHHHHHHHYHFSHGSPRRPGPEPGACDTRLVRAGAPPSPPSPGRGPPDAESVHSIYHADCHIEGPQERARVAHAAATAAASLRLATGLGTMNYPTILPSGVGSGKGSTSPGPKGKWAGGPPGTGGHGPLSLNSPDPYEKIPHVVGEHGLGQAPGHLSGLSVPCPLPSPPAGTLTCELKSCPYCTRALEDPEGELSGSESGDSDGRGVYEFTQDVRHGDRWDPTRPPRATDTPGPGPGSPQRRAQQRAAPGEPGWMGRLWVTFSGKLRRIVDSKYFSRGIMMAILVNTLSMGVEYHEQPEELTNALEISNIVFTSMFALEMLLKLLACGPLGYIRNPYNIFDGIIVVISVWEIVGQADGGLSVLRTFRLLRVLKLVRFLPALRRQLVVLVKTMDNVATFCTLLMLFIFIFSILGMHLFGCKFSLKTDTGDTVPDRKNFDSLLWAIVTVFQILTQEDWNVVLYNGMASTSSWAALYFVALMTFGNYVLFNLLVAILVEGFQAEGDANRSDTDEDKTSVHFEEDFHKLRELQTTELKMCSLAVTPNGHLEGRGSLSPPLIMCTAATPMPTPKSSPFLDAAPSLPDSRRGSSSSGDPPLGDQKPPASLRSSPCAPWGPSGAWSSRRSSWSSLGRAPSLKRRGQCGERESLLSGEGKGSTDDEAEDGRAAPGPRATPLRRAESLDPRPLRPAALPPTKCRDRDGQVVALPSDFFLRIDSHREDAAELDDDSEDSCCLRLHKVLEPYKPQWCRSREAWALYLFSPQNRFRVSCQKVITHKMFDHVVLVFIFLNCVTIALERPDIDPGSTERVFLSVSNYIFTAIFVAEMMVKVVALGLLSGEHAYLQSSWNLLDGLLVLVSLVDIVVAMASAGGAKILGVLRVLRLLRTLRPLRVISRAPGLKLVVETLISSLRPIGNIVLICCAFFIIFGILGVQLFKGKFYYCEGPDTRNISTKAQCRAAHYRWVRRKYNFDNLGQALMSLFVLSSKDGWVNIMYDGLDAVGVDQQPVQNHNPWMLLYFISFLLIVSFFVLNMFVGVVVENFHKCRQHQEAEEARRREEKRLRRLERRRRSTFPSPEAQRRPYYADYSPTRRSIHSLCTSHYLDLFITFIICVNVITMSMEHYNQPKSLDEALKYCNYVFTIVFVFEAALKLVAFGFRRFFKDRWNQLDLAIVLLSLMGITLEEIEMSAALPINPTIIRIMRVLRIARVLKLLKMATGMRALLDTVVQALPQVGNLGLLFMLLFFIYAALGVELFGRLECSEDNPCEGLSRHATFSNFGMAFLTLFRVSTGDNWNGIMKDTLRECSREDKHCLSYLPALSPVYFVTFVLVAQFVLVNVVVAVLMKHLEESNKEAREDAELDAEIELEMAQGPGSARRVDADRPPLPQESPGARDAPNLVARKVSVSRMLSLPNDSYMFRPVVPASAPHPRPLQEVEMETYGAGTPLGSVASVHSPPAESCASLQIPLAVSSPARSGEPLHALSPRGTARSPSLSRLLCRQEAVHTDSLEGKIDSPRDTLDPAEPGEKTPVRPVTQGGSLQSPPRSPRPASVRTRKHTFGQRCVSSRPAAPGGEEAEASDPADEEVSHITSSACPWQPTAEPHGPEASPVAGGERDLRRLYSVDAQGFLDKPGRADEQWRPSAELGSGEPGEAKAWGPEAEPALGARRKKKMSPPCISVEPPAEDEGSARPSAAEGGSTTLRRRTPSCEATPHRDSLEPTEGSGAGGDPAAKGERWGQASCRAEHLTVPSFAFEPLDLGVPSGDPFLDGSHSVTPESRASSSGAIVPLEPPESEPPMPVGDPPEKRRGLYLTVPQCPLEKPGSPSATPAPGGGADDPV

cells [5] = format: functional, cell-based
[6] = molecular target: T5, Trace amine-associated receptor 1 (Homo sapiens, UniProt Q96RJ0); assay: Counterscreen for agonists of the human trace amine associated receptor 1 (hTAAR1): Fluorescence-based cell-based high throughput dose response assay to identify hTAAR1 agonist that also desensitize TAAR1 receptor response.; format: functional
T5 sequence (Q96RJ0 whole entry): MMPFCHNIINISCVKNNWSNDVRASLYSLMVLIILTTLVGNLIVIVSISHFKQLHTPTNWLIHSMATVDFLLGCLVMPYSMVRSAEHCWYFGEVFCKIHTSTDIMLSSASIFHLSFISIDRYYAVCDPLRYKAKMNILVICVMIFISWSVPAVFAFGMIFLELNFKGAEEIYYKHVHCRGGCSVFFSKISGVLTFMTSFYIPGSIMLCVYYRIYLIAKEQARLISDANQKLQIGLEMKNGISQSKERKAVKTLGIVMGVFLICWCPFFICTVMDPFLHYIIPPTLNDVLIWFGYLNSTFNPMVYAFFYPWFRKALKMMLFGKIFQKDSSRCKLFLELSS

[7] = molecular target: T5, Trace amine-associated receptor 1; assay: Fluorescence-based cell-based high throughput dose response assay to identify agonists of the human trace amine associated receptor 1 (TAAR1).; format: functional
cells [8] = format: functional, cell-based; remark: listed apart in the source
Escherichia coli = assay: microbe, parasite or virus in culture
[9] = molecular target: T6, RNA-binding protein pos-1 (Caenorhabditis elegans, UniProt G5EF15); assay: inhibitors of POS-1/mex-3 RNA binding, dose response, biochemical, fluorescence polarization (AID 1964);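 further: purified POS-1 fused to maltose binding protein made in E. coli; potency of compounds blocking POS-1 binding to fluorescent RNA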
T6 sequence (G5EF15 whole entry): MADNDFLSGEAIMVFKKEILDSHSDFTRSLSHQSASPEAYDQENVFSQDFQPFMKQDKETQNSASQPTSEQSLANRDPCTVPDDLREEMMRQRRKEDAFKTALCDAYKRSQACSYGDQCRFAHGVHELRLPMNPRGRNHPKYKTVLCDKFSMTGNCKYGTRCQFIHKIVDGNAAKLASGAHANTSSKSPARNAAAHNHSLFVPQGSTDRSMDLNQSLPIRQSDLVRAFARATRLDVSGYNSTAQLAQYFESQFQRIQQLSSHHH

[10] = molecular target: T7, Zinc finger protein mex-5 (Caenorhabditis elegans, UniProt Q9XUB2); assay: MEX-5/TCR-2 RNA interaction inhibitors, dose response, biochemical, C. elegans, fluorescence polarization (AID 1960)
T7 sequence (Q9XUB2 whole entry): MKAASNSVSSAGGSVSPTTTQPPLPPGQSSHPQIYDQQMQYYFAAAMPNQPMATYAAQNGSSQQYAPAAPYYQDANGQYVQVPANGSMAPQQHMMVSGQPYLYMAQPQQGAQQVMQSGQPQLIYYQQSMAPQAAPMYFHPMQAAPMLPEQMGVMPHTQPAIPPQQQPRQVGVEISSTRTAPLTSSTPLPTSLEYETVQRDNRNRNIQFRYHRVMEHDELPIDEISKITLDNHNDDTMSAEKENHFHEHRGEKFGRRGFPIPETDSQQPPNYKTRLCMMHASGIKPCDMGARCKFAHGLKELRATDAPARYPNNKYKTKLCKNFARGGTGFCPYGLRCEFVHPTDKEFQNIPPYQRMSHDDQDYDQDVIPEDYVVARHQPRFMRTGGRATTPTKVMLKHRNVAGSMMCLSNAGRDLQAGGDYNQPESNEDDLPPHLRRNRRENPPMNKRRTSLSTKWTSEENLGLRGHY

Genome polyprotein = Genome polyprotein (dengue virus type 2, UniProt P29990); assay: Dengue-2 NS5 methyltransferase inhibitors, primary screen, biochemical, confirmation dose response (AID 588689); format: functional
Chain of Genome polyprotein (P29990 2492-3391 limits assumed): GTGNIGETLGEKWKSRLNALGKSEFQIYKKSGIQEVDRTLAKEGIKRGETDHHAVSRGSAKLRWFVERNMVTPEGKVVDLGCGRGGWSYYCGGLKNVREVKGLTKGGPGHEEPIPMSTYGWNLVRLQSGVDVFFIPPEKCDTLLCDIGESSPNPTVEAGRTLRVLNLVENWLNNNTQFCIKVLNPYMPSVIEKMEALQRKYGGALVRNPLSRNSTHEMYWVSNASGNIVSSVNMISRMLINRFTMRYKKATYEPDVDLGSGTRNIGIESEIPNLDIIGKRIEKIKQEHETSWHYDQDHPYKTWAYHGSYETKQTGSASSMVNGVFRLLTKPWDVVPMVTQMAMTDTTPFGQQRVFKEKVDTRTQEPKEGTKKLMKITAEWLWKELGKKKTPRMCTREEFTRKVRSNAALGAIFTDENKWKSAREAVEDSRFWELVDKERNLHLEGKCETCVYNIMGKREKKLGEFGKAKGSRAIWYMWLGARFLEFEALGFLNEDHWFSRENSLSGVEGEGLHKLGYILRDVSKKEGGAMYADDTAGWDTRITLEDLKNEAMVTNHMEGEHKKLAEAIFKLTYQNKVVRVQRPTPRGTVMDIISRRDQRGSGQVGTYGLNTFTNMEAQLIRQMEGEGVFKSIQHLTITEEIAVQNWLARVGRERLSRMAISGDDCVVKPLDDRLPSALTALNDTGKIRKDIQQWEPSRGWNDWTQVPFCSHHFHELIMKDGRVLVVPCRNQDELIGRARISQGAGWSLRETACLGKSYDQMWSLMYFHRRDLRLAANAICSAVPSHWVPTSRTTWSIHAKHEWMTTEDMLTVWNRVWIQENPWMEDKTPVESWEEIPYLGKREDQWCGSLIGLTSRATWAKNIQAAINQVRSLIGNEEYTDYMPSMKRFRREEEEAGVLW

Fatty acid synthase = Fatty acid synthase (Homo sapiens, UniProt P49327); assay: FAS thioesterase domain inhibitors, dose response, biochemical, kinetic fluorescence intensity (AID 624326); format: functional;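 further: rate of fluorescence rise from hydrolysis of a fluorogenic O-methyl fluorescein ester substrate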
[11] = C. albicans growth with fluconazole, confirmation, fluorescence, retest (AID 2467); format: functional, cell-based
[12] = NIH-3T3 fibroblast cytotoxicity, dose response, cytotoxicity control, cell-based, fluorescence, Alamar Blue, secondary assay (AID 2327); format: functional;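 further: NIH-3T3 mouse fibroblasts cultured with fluconazole at 8 µg/mL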

Cc1ccc2nc(-n3sc4ccccc4c3=O)sc2c1
IC50 (Phosphomannomutase 2): > 100 µM (inactive) | IC50 [1]: > 50 µM (inactive)

C/C=C/c1ccc2c(c1)O[C@@H](CN(C)C(=O)Nc1ccc(F)cc1)[C@@H](C)CN([C@@H](C)CO)S2(=O)=O
AC50 [2]: 4.65 µM (active)

CN(C)CCCN(C(=O)c1ccc(S(=O)(=O)N2CCc3ccccc32)cc1)c1nc2ccc(F)cc2s1
EC50 [3]: 2.66 µM (active)

COc1ccc(N(CC(=O)NCCSc2ccccc2)S(=O)(=O)c2ccccc2)cc1
IC50 (Beta-galactosidase): > 80 µM (inactive)

CCOC(=O)c1sc(NC(=O)C(CC)OC(=O)C(CC(C)C)NC(=O)c2ccccc2)nc1C (configuration not stated)
EC50 [4]: 5.2 µM (active)

CC(C)[C@H](NC(=O)c1ccc(Cl)c(Cl)c1)C(=O)N1CCC[C@H]1C(=O)NCCc1ccccc1Cl
IC50 (cells [5]): > 29.9 µM (inactive) | IC50 [6]: 1.53 µM (active) | EC50 [7]: 1.45 µM (active) | EC50 (cells [8]): > 29.9 µM (inactive)

Cc1cc(C)c(S(=O)(=O)N2CCN(C(=O)c3cc4ccccc4o3)CC2)c(C)c1
IC50 (Beta-galactosidase): > 80 µM (inactive)

COCCNC(=O)C[C@H]1CC[C@@H]2[C@H](COc3ccc(NC(=O)Nc4cccc(F)c4)cc3C(=O)N2C)O1
AC50 [2]: 6.86 µM (active)

O=C(c1nc(C(F)(F)F)[nH]c1-c1ccccc1)N1CCc2ccccc2C1
IC50 (cells [5]): > 29.9 µM (inactive) | IC50 [6]: 9.85 µM (active) | EC50 [7]: 2.77 µM (active) | EC50 (cells [8]): > 29.9 µM (inactive)

Cc1ccc2[nH]cc(CCNC(=O)Nc3ccccc3)c2c1
EC50 [4]: 5.23 µM (active)

CCCNC(=O)c1cn(CC)c2cc(N3CCN(C)CC3)c(F)cc2c1=O
AC50 (Escherichia coli): 2.04 µM (active)

Cc1csc2c(N3CCN(C(S)=Nc4ccc(C(F)(F)F)cc4)CC3)ncnc12
EC50 [3]: 1.68 µM (active)

O=[N+]([O-])c1ccc(/N=c2\ssnc2Cl)c2ccccc12
IC50 (Phosphomannomutase 2): > 100 µM (inactive) | IC50 [1]: > 100 µM (inactive)

O=C(CN1CCCCCC1)N1c2ccccc2Sc2ccc(C(F)(F)F)cc21
EC50 [4]: 7.61 µM (active)

Cc1cc(C)n(CCCNC(=O)COc2ccc([N+](=O)[O-])cc2)n1
AC50 (Escherichia coli): 89.1 µM (active)

CCC(=O)OC1(C)C(=O)C=C2C=C(C3CC3)OC=C2C1=O (configuration not stated)
EC50 [9]: > 300 µM (not active) | EC50 [10]: 30.4 µM (active) | IC50 (Genome polyprotein): > 100 µM (active)

COCc1cc(C)nc(SCC[N+](C)(C)CC(=O)Nc2ccccc2)c1C#N
IC50 (Fatty acid synthase): 12.4 µM (active)

O=C(Nc1nc2c(s1)CCCC2)c1cccc(S(=O)(=O)N2CCCc3ccccc32)c1
AC50 (Escherichia coli): 134 µM (active)

O=S(=O)(NCCc1csc(-c2ccccc2)n1)c1cccnc1
EC50 [3]: 3.76 µM (active)

CN(C)c1ccc(/N=c2\ssnc2Cl)cc1
IC50 (Phosphomannomutase 2): > 100 µM (inactive) | IC50 [1]: 12.4 µM (active)

O=C(NCCCN1CCN(c2cccc(Cl)c2)CC1)C1(S(=O)(=O)c2ccc(Cl)cc2)CC1
EC50 [4]: 6.17 µM (active)

COc1ccccc1N1CCN(C(=O)c2cc3cc(Cl)ccc3[nH]2)CC1
EC50 [11]: > 38 µM (not active) | EC50 [12]: 38.6 µM (active) | IC50 (Beta-galactosidase): > 80 µM (inactive)

O=C(c1cc(=O)c2cc(Cl)ccc2o1)N1CCN(Cc2ccccc2)CC1
IC50 (Beta-galactosidase): > 80 µM (inactive)

Cc1cc(C)c2cc(C#N)c(N3CCNCC3)nc2c1
IC50 (cells [5]): > 30 µM (inactive) | IC50 [6]: 4.28 µM (active) | EC50 [7]: 1.55 µM (active) | EC50 (cells [8]): > 30 µM (inactive)

CCOc1ccc(NC(=O)c2ccc(NC(=O)c3cn4c5c(c(N6CCN(C)CC6)c(F)cc5c3=O)OCC4C)cc2)cc1 (configuration not stated)
AC50 (Escherichia coli): 0.645 µM (active)

O=C(NCCc1ccccn1)c1ccc(OC2CCN(CCc3ccccc3)CC2)cc1
EC50 [3]: 1.19 µM (active)

Cc1ccc(S(=O)(=O)N(CC(=O)N2CCN(c3ccccc3F)CC2)C2CCCCC2)cc1
EC50 [4]: 2.58 µM (active)

COc1ccc(NS(=O)(=O)c2ccc(NC(=S)NC(=O)C(C)C)cc2)cc1
IC50 (cells [5]): 11.5 µM (inactive) | IC50 [6]: 6.23 µM (active) | EC50 [7]: 1.99 µM (active) | EC50 (cells [8]): 19 µM (inactive)

— ChEMBL document CHEMBL1201862, “PubChem BioAssay data set” (2004)
